In patent US9839642B2, “Beta-tetrazolyl-propionic acids as metallo-beta-lactamase inhibitors” (priority 2014, dated 2017):
Where two headings read alike, the source gives them in different places.

Columns and labels:
[1] = system: Klebsiella pneumoniae expressing VIM-1 (IHMA599644); experiment: Antibiotic potentiation activity: synergistic concentration (MITC95) with imipenem, growth by OD600; type: cell-based
Outline: (§1)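 Strains grown overnight at 35° C, resuspended in saline, diluted 1:100 into 1.1×CAMHB; imipenem at 1 μg/ml or 4 μg/ml with test compound 200 μM to 0.195 μM. Incubated 22 hours to 24 hours at 35° C, OD600 read; MITC95 is lowest compound concentration inhibiting 95% of growth.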

[2] = system: Serratia marcescens expressing IMP-1 (CL5741); experiment: as above; type: cell-based
Outline: as §1

[3] = system: Escherichia coli expressing NDM-1 (CLB30005); experiment: as above; type: cell-based; settings: 95% inhibition of bacterial growth, strain CLB30005
Outline: as §1

IMP-1 = IMP-1 (Serratia marcescens, UniProt P52699); experiment: Enzyme activity: determination of IC50, fluorescence assay with CCF2-FA substrate; type: biochemical; settings: CCF2-FA 1.25 μM, 2 hours at 25° C., read-out: IMP1 IC50
Outline: (§2)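 Enzyme (1 pM NDM-1, 2 pM IMP-1, 30 pM VIM-1) incubated with inhibitor (20 to 0.00063 μM) and 1.25 μM CCF2-FA in 100 mM KH2PO4 pH 7, 0.005% Tween-20, 10 μM ZnSO4, 2 h at 25 °C. Fluorescence read at 460 nm (ex 405 nm); IC50 by 4-parameter fit.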

NDM-1 = NDM-1 (Klebsiella pneumoniae, UniProt C7C422); experiment: as above; type: biochemical; settings: CCF2-FA 1.25 μM, 2 hours at 25° C., read-out: NDM1 IC50
Outline: as §2

VIM-1 = VIM-1 (Pseudomonas aeruginosa, UniProt A0A0F7KYQ8); experiment: as above; type: biochemical; settings: CCF2-FA 1.25 μM, 2 hours at 25° C., read-out: VIM1 IC50
Outline: as §2

[4] = system: Escherichia coli expressing NDM-1 (CLB30016); experiment: Antibiotic potentiation activity: synergistic concentration (MITC95) with imipenem, growth by OD600; type: cell-based
Outline: as §1

[5] = 95% inhibition of bacterial growth, strain IHMA599644
[6] = 95% inhibition of bacterial growth, strain CL5741
[7] = K. pneumoniae IHMA599644 (VIM-1), 95% inhibition of growth
[8] = E. coli CLB30016 (NDM-1), 95% inhibition of growth
[9] = S. marcescens CL5741 (IMP-1), 95% inhibition of growth
[10] = 95% inhibition of bacterial growth, strain CLB30016

Sequence of IMP-1 (P52699 19-246, looked up, species assumed): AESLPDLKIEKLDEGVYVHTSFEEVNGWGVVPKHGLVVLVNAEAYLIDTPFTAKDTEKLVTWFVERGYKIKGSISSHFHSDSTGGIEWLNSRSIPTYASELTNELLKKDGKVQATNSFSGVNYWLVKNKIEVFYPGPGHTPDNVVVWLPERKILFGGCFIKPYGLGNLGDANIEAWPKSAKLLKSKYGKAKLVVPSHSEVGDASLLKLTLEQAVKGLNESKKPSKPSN
Sequence of NDM-1 (C7C422 29-270, looked up, species assumed): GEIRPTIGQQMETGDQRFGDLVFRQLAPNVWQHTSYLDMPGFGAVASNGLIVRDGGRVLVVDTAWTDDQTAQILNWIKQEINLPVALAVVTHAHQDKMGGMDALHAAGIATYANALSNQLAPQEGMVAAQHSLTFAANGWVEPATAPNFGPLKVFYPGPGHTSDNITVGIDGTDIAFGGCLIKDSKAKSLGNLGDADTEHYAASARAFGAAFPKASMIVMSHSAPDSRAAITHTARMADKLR

| Structure (SMILES) | VIM1 KP599644 MITC95 [1, 5] | IMP1 SM5741 MITC95 [2, 6] | NDM1 EC30005 MITC95 [3] | IC50 (IMP-1; enzyme 2 pM) | IC50 (NDM-1; enzyme 1 pM) | IC50 (VIM-1; enzyme 30 pM) | VIM1 KP599644 MITC95 [1, 7] | NDM1 EC30016 MITC95 [4, 8] | IMP1 SM5741 MITC95 [2, 9] | IC50 (IMP-1; IMP-1 enzyme 2 pM) | IC50 (NDM-1; NDM-1 enzyme 1 pM) | IC50 (VIM-1; VIM-1 enzyme 30 pM) | NDM1 EC30016 MITC95 [4, 10] |
| --- | --- | --- | --- | --- | --- | --- | --- | --- | --- | --- | --- | --- | --- |
| CCCC[C@@H](C(=O)O)[C@@H](Cc1ccc(-c2cnn(-c3ccccc3)c2)cc1)c1nn[nH]n1 [Example 187, (2R)-2-[(1R)-2-[4-(1-phenyl-1H-pyrazol-4-yl)phenyl]-1-(2H-tetrazol-5-yl)ethyl]hexanoic acid] | >200 µM | 103 µM | >200 µM | 180 nM | 980 nM | 140 nM | – | – | – | – | – | – | – |
| CCC[C@H](C(=O)O)[C@H](Cc1ccc(-c2cnc(N3CCCCC3)s2)cc1)c1nn[nH]n1 [Example 204, (2S)-2-[(1S)-2-[4-(2-piperidin-1-yl-1,3-thiazol-5-yl)phenyl]-1-(2H-tetrazol-5-yl)ethyl]pentanoic acid] | 100 µM | 4.7 µM | 3.9 µM | 26 nM | 3.4 nM | 2.1 nM | – | – | – | – | – | – | – |
| C[C@@H](c1ccccc1)[C@H](c1nnn[nH]1)[C@H](CCF)C(=O)O [Example 28, (2S,3S,4R)-2-(2-fluoroethyl)-4-phenyl-3-(1H-tetrazol-5-yl)pentanoic acid] | >200 µM | >200 µM | 200 µM | 1800 nM | 310 nM | 190 nM | – | – | – | – | – | – | – |
| CC(C)C[C@H](C(=O)O)[C@H](Cc1ccccc1)c1nnn[nH]1 [Example 7, (2S)-4-methyl-2-[(2S)-2-phenyl-1-(1H-tetrazol-5-yl)ethyl]pentanoic acid] | 37.5 µM | 62.5 µM | 18.8 µM | 52 nM | 19 nM | 3.3 nM | – | – | – | – | – | – | – |
| CCC[C@H](C(=O)O)[C@H](Cc1ccc(-c2cccc(CN3CCCCC3)c2)cc1)c1nn[nH]n1 [Example 206, (2S)-2-[(1S)-2-[3′-(piperidin-1-ylmethyl)biphenyl-4-yl]-1-(2H-tetrazol-5-yl)ethyl]pentanoic acid] | 50 µM | 18.8 µM | 18.8 µM | 130 nM | 82 nM | 7.2 nM | – | – | – | – | – | – | – |
| CC[C@H](C(=O)O)[C@@H](c1nnn[nH]1)[C@@H](C)c1ccccc1 [Example 29, (2S,3S,4R)-2-ethyl-4-phenyl-3-(1H-tetrazol-5-yl)pentanoic acid] | 200 µM | >200 µM | 25 µM | 2300 nM | 530 nM | 210 nM | – | – | – | – | – | – | – |
| CCCCC(C(=O)O)[C@@H](Cc1ccc(-c2ccc(S(C)(=O)=O)cc2)cc1)c1nn[nH]n1 (stereo in doubt) [Example 183, (2R)-2-[(1R)-2-[4′-(methylsulfonyl)biphenyl-4-yl]-1-(2H-tetrazol-5-yl)ethyl]hexanoic acid] | >200 µM | >200 µM | >200 µM | 200 nM | 660 nM | 700 nM | – | – | – | – | – | – | – |
| CCC[C@H](C(=O)O)[C@H](Cc1cccc(-c2cccc(OC3CCNCC3)n2)c1)c1nn[nH]n1 [Example 348, (2S)-2-[(1S)-2-{3-[6-(piperidin-4-yloxy)pyridin-2-yl]phenyl}-1-(2H-tetrazol-5-yl)ethyl]pentanoic acid] | – | – | – | – | – | – | 18.8 µM | 18.8 µM | 6.2 µM | 540 nM | 22 nM | 2.2 nM | – |
| CCC[C@H](C(=O)O)[C@H](Cc1ccc(C(=O)N(C)C)cc1)c1nnn[nH]1 [Example 277, (2S)-2-[(1S)-2-[4-(dimethylcarbamoyl)phenyl]-1-(1H-tetrazol-5-yl)ethyl]pentanoic acid] | – | – | – | – | – | – | 75 µM | 25 µM | 12.5 µM | 130 nM | 10 nM | 13 nM | – |
| CCC[C@H](C(=O)O)[C@H](Cc1cccc(F)c1)c1nnn[nH]1 [Example 260, (2S)-2-[(1S)-2-(3-fluorophenyl)-1-(1H-tetrazol-5-yl)ethyl]pentanoic acid] | – | – | – | – | – | – | 18.8 µM | 6.2 µM | 12.5 µM | 870 nM | 75 nM | 3.7 nM | – |
| CCC[C@H](C(=O)O)[C@H](Cc1ccccc1C(N)=O)c1nnn[nH]1 [Example 47, (2S)-2-[(1S)-2-(2-carbamoylphenyl)-1-(1H-tetrazol-5-yl)ethyl]pentanoic acid] | 37.5 µM | 200 µM | – | 7200 nM | 120 nM | 73 nM | – | – | – | – | – | – | 9.4 µM |
| CCC[C@H](C(=O)O)[C@H](Cc1csc(N)n1)c1nnn[nH]1 [Example 150, 4-((2S,3S)-3-carboxy-2-(1H-tetrazol-5-yl)hexyl)thiazol-2-aminium] | 25 µM | >200 µM | – | > 20000 nM | 480 nM | 300 nM | – | – | – | – | – | – | 1.6 µM |
| Nc1ccc(-c2ccc(C[C@H](c3nnn[nH]3)[C@@H](C(=O)O)C3CCCC3)cc2)cn1 [Example 72, (2S,3S)-4-(4-(6-aminopyridin-3-yl)phenyl)-2-cyclopentyl-3-(1H-tetrazol-5-yl)butanoic acid] | 12.5 µM | 0.39 µM | – | 19 nM | 5.6 nM | 3.8 nM | – | – | – | – | – | – | 6.2 µM |
| CC(C)C[C@H](C(=O)O)[C@H](Cc1ccc(C2=CCNC2)nc1)c1nn[nH]n1 [Example 181, (2S)-2-[(1S)-2-[6-(2,5-dihydro-1H-pyrrol-3-yl)pyridin-3-yl]-1-(2H-tetrazol-5-yl)ethyl]-4-methylpentanoic acid] | 75 µM | 100 µM | – | 4400 nM | 1000 nM | 17 nM | – | – | – | – | – | – | 38 µM |
| CC(=O)N1CCC(C[C@H](c2nnn[nH]2)[C@@H](C(=O)O)C(C)C)CC1 [Example 90, (2S,3S)-4-(1-acetylpiperidin-4-yl)-2-isopropyl-3-(1H-tetrazol-5-yl)butanoic acid] | 200 µM | >200 µM | – | 14000 nM | 200 nM | 310 nM | – | – | – | – | – | – | 62 µM |
| O=C(O)[C@@H](C1CCCC1)[C@H](Cc1ccc(-c2cn[nH]c2)cc1)c1nnn[nH]1 [Example 63, (2S,3S)-4-(4-(1H-pyrazol-4-yl)phenyl)-2-cyclopentyl-3-(1H-tetrazol-5-yl)butanoic acid] | 18.8 µM | 2.0 µM | – | 25 nM | 4.5 nM | 1.1 nM | – | – | – | – | – | – | 6.2 µM |
| CC(C)C[C@H](C(=O)O)[C@H](Cc1ccc(C2=CCNC2)c(F)c1)c1nn[nH]n1 [Example 452, 3-(4-((2S,3S)-3-carboxy-5-methyl-2-(2H-tetrazol-5-yl)hexyl)-2-fluorophenyl)-2,5-dihydro-1H-pyrrol-1-ium 2,2,2-trifluoroacetate] | – | – | – | – | – | – | 12.5 µM | 9.375 µM | 9.375 µM | 222 nM | 93.1 nM | 0.937 nM | – |
| CC(C)C[C@H](C(=O)O)[C@H](Cc1ccc(C(N)=O)cc1)c1nnn[nH]1 [Example 48, (2S)-2-[(1S)-2-(4-carbamoylphenyl)-1-(1H-tetrazol-5-yl)ethyl]-4-methylpentanoic acid] | 50 µM | 4.7 µM | – | 130 nM | 43 nM | 2.2 nM | – | – | – | – | – | – | 6.2 µM |
| CCC[C@H](C(=O)O)[C@H](Cc1ccc2nonc2c1)c1nnn[nH]1 [Example 273, (2S)-2-[(1S)-2-(2,1,3-benzoxadiazol-5-yl)-1-(1H-tetrazol-5-yl)ethyl]pentanoic acid] | – | – | – | – | – | – | 9.4 µM | 12.5 µM | 150 µM | 2200 nM | 260 nM | 1.9 nM | – |
| CC(C)(C)[C@H](C(=O)O)[C@H](Cc1ccc(NC(=N)N)nc1)c1nnn[nH]1 [Example 422, (2R,3S)-2-(tert-butyl)-4-(6-guanidinopyridin-3-yl)-3-(1H-tetrazol-5-yl)butanoic acid] | – | – | – | – | – | – | 6.25 µM | 12.5 µM | 25 µM | 104 nM | 228 nM | 4.01 nM | – |
